Target: zebrafish WT α1BB-AR (Danio rerio, UniProt Q5U3D9)
Assay: cell-based

zebrafish WT α1BB-AR, sequence (Q5U3D9 1-481): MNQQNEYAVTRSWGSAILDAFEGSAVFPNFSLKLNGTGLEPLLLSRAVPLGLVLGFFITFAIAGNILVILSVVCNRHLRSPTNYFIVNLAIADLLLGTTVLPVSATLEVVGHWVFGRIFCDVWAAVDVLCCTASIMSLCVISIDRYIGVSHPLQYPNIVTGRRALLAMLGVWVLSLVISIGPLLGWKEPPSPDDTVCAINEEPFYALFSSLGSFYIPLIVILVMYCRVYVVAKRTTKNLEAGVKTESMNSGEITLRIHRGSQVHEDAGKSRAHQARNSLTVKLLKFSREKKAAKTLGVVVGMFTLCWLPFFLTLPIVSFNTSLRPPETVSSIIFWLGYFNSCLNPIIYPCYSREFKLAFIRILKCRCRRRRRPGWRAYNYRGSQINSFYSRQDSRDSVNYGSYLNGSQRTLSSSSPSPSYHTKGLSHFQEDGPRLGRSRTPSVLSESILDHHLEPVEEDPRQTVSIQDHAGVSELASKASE

With `NC[C@H](O)c1ccc(O)c(O)c1` [NE, norepinephrine] as the molecule, how does the EC50 read?
The EC50 was 407 ± 45 nM.

From paper PMC6882899 (Scientific Reports, 2019)
